Source: publication PMC8344021, “Discovery of Small Molecule Bak Activator for Lung Cancer Therapy” (Theranostics, 2021)

Legend:
[1] = test system: A549 cells; assay: Apoptotic cell death assay (Annexin V/PI); format: cell-based, human
Source text: Supplemental Materials and Methods
Small molecule NSC14073 (BKA-073) was obtained from the Drug Synthesis and Chemistry Branch, Developmental Therapeutic Program, Division of Cancer Treatment and Diagnosis, National Cancer Institute (NCI, Bethesda, MD) (http://dtp.nci.nih.gov/RequestCompounds).
Venetoclax (ABT-199, 205807) was purchased from MedKoo Biosciences (Morrisville, NC).
Antibodies including PARP (sc-8007), Bax (sc-7480), Mcl-1 (sc-12756), cytochrome c (sc-13156) and actin (sc-47778) were purchased from Santa Cruz (Santa Cruz, CA). Bcl2 antibody (05-826) was obtained from Calbiochem (Darmstadt, Germany). Bcl-XL (ab32370), Bak (ab32371) and Bax (ab104156) antibodies were purchased from Abcam (Cambridge, MA).
Active caspase 3 (9579S) and Mcl-1 (94296S) antibodies were purchased from Cell Signaling Technology (Danvers, MA). Fluorescent Bak BH3 domain peptide (FAM-GQVGRQLAIIGDDINR) and purified Bcl-XL protein were purchased from NeoBioSciTM (Cambridge, MA). Bim BH3 peptide (AS-62278) was obtained from AnaSpec, Inc. (Fremont, CA). Purified recombinant human Bak protein (BAK1-26166TH) was purchased from Creative Biomart (Shirley, NY). Purified recombinant human Bax protein (H00000581-P01) was obtained from Novus Biologicals (Littleton, CO) and purified human Bcl-XL protein (SRP0187) was purchased from Sigma-Aldrich (St. Louis, MO). Purified human Bcl2 protein was obtained from ProteinX Lab (San Diego, CA). Purified recombinant human Mcl-1 protein (GWB-P0342D) was purchased from GenWay Biotech, Inc. (San Diego, CA). Purified recombinant human Bcl-w (824-BW-050) protein was obtained from R&D systems (Minneapolis, MN). Bis (maleimido) hexane (BMH) (22330) was purchased from Thermo Scien tific (Rockford, IL). JC -1 (ENZ-52304) was obtained from Enzo Life Sciences, Inc. (Farmingdale, NY). All other reagents used were obtained from commercial sources unless otherwise stated. […]
Apoptotic cell death assay
Apoptotic cells were detected using Annexin-V Apoptosis Detection Kit (556547, BD Biosciences, San Jose, CA) according to the manufacturer’s instructions. After treatment with BKA-073 or other agent(s) for 72h, cells were washed twice with cold 1x PBS and then resuspended in 1 x Binding Buffer at a concentration of 1 x 10^6 cells/ml. 100 μl of the solution […]
(1 x 10^5 cells) was transferred to a 5 ml culture tube, followed by the addition of 5 μl of FITC Annexin V and 5 μl propidium iodide (PI). The cells were gently vortexed and incubated for 15 min at RT (25°C) in the dark. 400 μl of 1x binding buffer was added to each tube. […]
mM DTT] in black 96-well microplates. The plate was mixed o n a shaker for 1 minute and incubated at room temperature for an additional 15 minutes. The FP values (in millipolarization units) were measured using a fluorescence microplate reader at 485/530 nm (Gemini XPS, Molecular Devices). Data analysis and inhibit ory constant (Ki) value was determined by GraphPad prism software as described.
Cloning, protein expression and purification of mouse B ak protein
The clone pMIH-mRuby2-mouse Bak (#111627) for generation of mouse Bak protein was obtained from Addgene (Watertown, MA). The mouse Bak cDNA was cloned into pET29b expression vector between BglII and XhoI sites as His tag fusions. The BL21 DE3 Escherichia coli containing plasmid was grown at 37°C in LB (Luria-Bertani) media. The protein expression was induced with IPTG (0.2 mM) at 18°C for 16 h when the density reached an OD600 of 0.6.
Bacteria were then harvested and resuspended in 30 ml buffer A (20 mM Tris, pH 8.0, 120 mM NaCl, 10% glycerol, and protease inhibitor cocktail) and lysed by sonication. The lysate was centrifuged at 14,000 rpm for 30 min. The resulting supernatant was incubated with HisPur Cobalt Resin (Thermo Scientific) at 4 °C for 2h. After washing wi th buffer A, His-tagged mouse Bak proteins was eluted with buffer B (20 mM Tris, pH 8.0, 120 mM NaCl, 300 mM imidazole, 10% glycerol with protease inhibitor). The elution peak of interest was checked by SDS -PAGE […]

[2] = test system: NSCLC and SCLC cell lines; assay: Dynamic BH3 profiling in panel of NSCLC and SCLC cell lines; format: cell-based, human; conditions: 1μM, 16h
Procedure: DBP using Bim peptide was carried out as described previously [24]-[26]. After treatment with BKA-073, venetoclax (ABT-199) or DMSO control for 16h, cells were collected, washed and resuspended at 2 x 10^6 cells/ mL in mannitol experimental buffer (MEB) [150 mM D-mannitol, 10 mM HEPES-KOH (pH 7.5), 50 mM KCl, 20 μM EGTA, 20 μM EDTA, 0.1% BSA, and 5 mM succinate] as described. One volume of the 4x cell suspension was added to one volume of a 4x dye solution containing 4 μM JC-1, […] oligomycin, 0.02% digitonin, 20mM β-mercaptoethanol in MEB. The 2x cell/dye mixture was allowed to rest for 5-10 min at room temperature to allow for permeabilization and JC-1 staining. A total of 15μl of the 2x cell/dye mixture was loaded into a 384-well plate that contained 15µL of Bim BH3 peptide (0.03, 0.1, 0.3, 1, and 3 μM) in MEB, shaken for 15 s inside the reader, and the fluorescence at 590 nm monitored every 5 min for 180 min at 32 °C. The dynamic BH3 profile (∆ % Priming) was calculated as described [24]-[26].
Figure 1 Discovery of small molecule BKA-073 as a lead compound that targets BH3 domain of Bak and induces mitochondrial priming and apoptosis in lung cancer cells. (A) Schematic illustration of screening strategies used to identify the lead Bak agonist BKA-073 and its chemical structure. […] (C) Expression levels of Bak were analyzed by Western blot in NSCLC and SCLC cell lines. […]

In the case of `COc1ccc2nc3ccccc3c(NCCNCC(C)O)c2c1` (stereo not drawn) [BKA-073], the “induction of apoptotic cell death” value ([1]; 0, 0.25, 0.5, 0.75, 1.0 µM, 72h) is reported as “in a dose-dependent manner”, the “sensitivity (DBP and apoptosis)” value ([1]; A549 Bak-/- cells expressing A79E Bak, 1 µM) is reported as “completely or partially restored sensitivity” and the “sensitivity (DBP and apoptosis)” value ([1]; A549 Bak-/- cells expressing D83E Bak, 1 µM) is reported as “failed to restore sensitivity”. For the same compound, the “sensitivity (DBP and apoptosis)” value ([1]; A549 Bak-/- cells expressing I80E Bak, 1 µM) was “completely or partially restored sensitivity”, the “sensitivity (DBP and apoptosis)” value ([1]; A549 Bak-/- cells expressing N86E Bak, 1 µM) was “failed to restore sensitivity” and the “sensitivity (DBP and apoptotic cell death)” value ([1]; A549 Bak-/- cells expressing exogenous WT Bak, 1 µM) was “restored sensitivity”. For the same compound, the “sensitivity (DBP and apoptotic cell death)” value ([1]; A549 Bak-/- cells expressing ΔBH3 mutant Bak, 1 µM) was “failed to restore sensitivity”, the “sensitivity (DBP and apoptotic cell death)” value ([1]; A549 Bak-/- cells transfected with vector-only, 1 µM) was “resistant” and the apoptotic cell death ([1]; Bak-/- A549 cells) was ~ 20%. For the same compound, the “sensitivity (DBP and apoptotic cell death)” value ([1]; Bak-/- A549 cells, 1μM, 16h or 72h) was “significant resistance”, the “sensitivity (DBP and apoptotic cell death)” value ([1]; Bax-/- A549 cells, 1μM, 16h or 72h) was “sensitive” and the apoptotic cell death ([1]; DKO A549 cells) was ~ 20%. The “sensitivity (DBP and apoptotic cell death)” value ([1]; DKO A549 cells, 1μM, 16h or 72h) was “significant resistance”, the “sensitivity (DBP and apoptotic cell death)” value ([1]; parental A549 cells, 1μM, 16h or 72h) was “sensitive” and the “induction of mitochondrial priming” value [2] was “potently induced”.
